Assay results from patent US20160324172A1, “Post-Harvest Coating for Fresh Produce” (Jones-Hamilton Co., priority 2015, published 2016).

Assay: Solubility of emulsifier/stabilizer in the coating solution (visual evaluation)
Assay type: physicochemical
Experimental: For this experiment, coating solutions consisted of: 200 g tap water, 14 g SAS (7 w %), 30 g cornstarch (15 w %), and varying amounts of diverse emulsifiers/stabilizers.
Treatment: For each emulsifying material, one grape tomato was soaked for 1 minute in respective coating solution, and allowed to dry on a cooling tray. If material generated a visually preferred coating, 8 more grape tomatoes were coated (ntotal=9) in the same solution to generate enough samples for a microbial test. […] A second grape tomato was soaked, and if the stickiness improved, the concentration of the emulsifying ingredient was further increased until preferred coating was achieved. 8 more tomatoes were coated at preferred concentration (ntotal=9) for microbial testing.
Evaluation: Coatings were photographed and evaluated visually after the material dried. Microbial test of tomatoes with preferred coatings: Grape tomatoes were stored for 7 days at room temperature on cooling trays. Three tomatoes (triplicates) were swabbed with pre-wetted cotton swabs after: 24 hours, 3 days and 7 days. For dilution purpose, the swabs were transferred to Eppendorf tubes with 1 ml PBS. Three 1 ul loops (triplicates) were used to transfer three 1 ul samples per Eppendorf tube to nutrient agar plates. Per swab: 1 Eppendorf tubes and 3 nutrient agar plates. Per tomato: 3 Eppendorf tubes and 9 nutrient agar plates. Nutrient agar plates were incubated at room temperature for 7 days. Colony forming units were counted after: 24 hours, 3 days and 7 days.

solubility in the water-based coating solution: good solubility | Coating solution (Solubility of emulsifier/stabilizer) (200 g tap water, 14 g SAS, 30 g cornstarch plus emulsifier, visual evaluation): Good | Solubility (overall assessment, solubility in coating solution): Good
SMILES: OCC(O)CO [Vegetable glycerin, glycerin]
